The values below come from patent US12667585B2, “Immunotherapeutic nanoparticles and methods relating thereto” (Wake Forest University Health Sciences, priority 2019, dated 2026).

For this assay, the system named is BMDM, BMDC or AM cells. In words: Real time RT-PCR of type I IFN and other inflammatory response genes. The class given is cell-based, C57BL/6 mouse. The note with it: 100 nM cGAMP, 4 h. The procedure:
Real time RT-PCR of type I IFN and other inflammatory response genes induced by NP-cGAMP. BMDM, BMDC or AM cells […] were seeded into 6-well plates and cultured for 24 h. The cells were then incubated at 37° C. with free cGAMP or NP-cGAMP (100 nM cGAMP) suspended in complete culture medium for 4 h. All cellular RNA was collected using TRIzol reagent (Thermo Fisher). One microgram of total RNA was transcribed into cDNA using High-Capacity cDNA Reverse Transcription Kit (Thermo Fisher), and real-time quantitative PCR (qPCR) was performed using PowerUp SYBR Green Master Mix (Thermo Fisher) with primers for amplification of Gapdh, Ifnb1, Cxcl9, Cxcl10, Tnf, Il6, Il12b, Il1b, Ifna1, Il10, and Tgfb1 genes. mRNA levels were normalized against the housekeeping gene GAPDH.
Background: Quantitative PCR measures a nucleic acid by following its amplification.

In the case of `Nc1nc2c(ncn2[C@@H]2O[C@@H]3COP(=O)(O)O[C@H]4[C@@H](O)[C@H](n5cnc6c(N)ncnc65)O[C@@H]4COP(=O)(O)O[C@@H]2[C@@H]3O)c(=O)[nH]1` [free cGAMP, cyclic [G(2′,5′)pA(3′,5′)p]], the “expression of Ifnb1, Ifna1 and other proinflammatory genes (Tnf, Il1b, Il6, Il12b, Cxcl9,10)” value is on record as “only a modest increase”.
